# According to PMC6952399, “Structures of lipoprotein signal peptidase II from Staphylococcus aureus complexed with antibiotics globomycin and myxovirescin” (Nature Communications, 2020):
# How the values were obtained:
# LspA from E. coli = test system: LspA from E. coli; design: method as in earlier work; conditions: ref 7 (supplementary references); cited from earlier work
# LspMrs N52A = molecular target: T1, LspMrs N52A (Staphylococcus aureus, UniProt Q6GHN9, N52A); assay: Gel-shift peptidase assay, LspMrs N52A mutant; type: biochemical, methicillin-resistant Staphylococcus aureus
# T1 construct: MGSS-hexahistidine-SSGR-TEV site (ENLYFQ) (N, cleaved yes); made in house; host or cells: E. coli C43 (DE3)
# Description: LspA mutant genes (N52A, N52Q, G54A, G54P, R110A, R110K, D118N, N133A, N133Q and D136N) were obtained by site-directed mutagenesis of the wild-type lspA construct in pETDuet. Mutagenesis was performed using the Q5® Site-Directed Mutagenesis Kit (New England Biolabs) and specific primers are listed in Supplementary Table 5. The correct mutations were confirmed by sequencing (Eurofins Genomics). Expression and purification of all LspMrs wild-type and mutants for enzyme assays were performed as described above with the following modifications: TALON® Metal Affinity Resin (Clontech) was used for IMAC purification and the detergent DDM was used for membrane solubilisation and protein purification.
# (§1) The peptidase activity of LspMrs and P. aeruginosa LspA (LspPae) was quantified in a coupled gel-shift assay developed previously for LspPae[5]. The P. aeruginosa lipoprotein pre-proICP and the first two enzymes in the bacterial lipoprotein processing pathway Lgt and LspA were expressed and purified, as described. For FRET assays LspMrs was expressed and purified as described above and LspPae was expressed and purified as described in a published protocol.
# Gel-shift activity assay. […] Band intensities of ICP were quantified using Image Lab. […]
# [1] = molecular target: T2, LspMrs (lipoprotein signal peptidase II from methicillin-resistant Staphylococcus aureus) (Staphylococcus aureus, UniProt Q6GHN9); assay: Coupled gel-shift peptidase assay with proICP substrate, LspMrs WT; type: biochemical; conditions: proICP substrate (12 µM pre-proICP), 0.5 µM enzyme, 30 min
# T2 construct: MGSS-hexahistidine-SSGR-TEV site (ENLYFQ) (N, cleaved yes); made in house; host or cells: E. coli C43 (DE3)
# From the text: as §1
# Gel-shift activity assay. For time course assays, reactions were set up containing 12 µM pre-proICP, 250 µM DOPG (Avanti Polar Lipids, Inc.) and 1.2 µM Lgt in Buffer E (50 mM Tris/HCl pH 7.5, 150 mM NaCl, 1 mM DTT, 0.02%(w/v) LMNG). The assay mixtures were incubated at 37 °C and 200 rpm for 60 min to allow Lgt catalysed conversion of pre-proICP to the LspA substrate proICP. The LspA reaction was initiated by adding 0.5 µM LspA directly to the assay mixture. At timed intervals, 20 µL samples were removed and the reaction was stopped by adding 10 µL of 4x SDS loading buffer (62.5 mM Tris/HCl pH 6.8, 2.5%(w/v) SDS, 0.002%(w/v) bromophenol blue, 0.5 M β-mercaptoethanol, 10%(v/v) glycerol). To compare the activity of wild-type and mutant LspMrs, assays were allowed to proceed for 30 min before being stopped with SDS loading buffer. […] Band intensities of ICP were quantified using Image Lab. […]
SMILES,inhibition type (LspA from E. coli),IC50 (LspMrs N52A),IC50 [1]
CCCCCC[C@H]1OC(=O)CNC(=O)[C@H]([C@H](C)O)NC(=O)[C@H](CO)NC(=O)[C@H]([C@H](C)CC)NC(=O)[C@H](CC(C)C)N(C)C(=O)[C@@H]1C [globomycin],non-competitive,1.23 ± 0.59 µM,171 µM
"CCCC1OC(=O)C(C)CC(C)CCCCC(=O)CCCC(CC)C=CC=C(COC)CCC(O)C(O)CC(O)CNC1=O (stereo not shown) [myxovirescin, myxovirescin A1]",–,–,0.16 µM
